From ChEMBL document CHEMBL1201862, “PubChem BioAssay data set” (2004)
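Dose response: 5 concentrations. Exposure: 48 h. Format: 96-well plates. Endpoint: linear interpolation; highest concentration if not reached. At the GI50, growth is halved.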 Activity calls are given as the source filed them. No stated cut-off is given here; in the data, active = GI50 up to about 1.1 µM and inactive = higher.

Legend:
Experiment in all cases: inhibition of tumour cell growth, NCI panel, 48 h
M14 = system: M14
SK-MEL-5 = system: SK-MEL-5
SK-MEL-2 = system: SK-MEL-2
PC-3 = system: PC-3
SR = system: SR
CAKI-1 = system: CAKI-1
ACHN = system: ACHN
UACC-257 = system: UACC-257
RXF 393 = system: RXF 393
SNB-19 = system: SNB-19
T47D = system: T47D
LOX IMVI = system: LOX IMVI
HCT-15 = system: HCT-15
K562 = system: K562
A549 = system: A549
SF-295 = system: SF-295
A498 = system: A498
RPMI-8226 = system: RPMI-8226
U-251 = system: U-251
MDA-MB-231 = system: MDA-MB-231

c1ccc2c(c1)c1c(c3ccccc32)CN2CCCC2C1 (stereo not given)
GI50 (M14): 3.67 µM (inactive) | GI50 (SK-MEL-5): 3.51 µM (inactive) | GI50 (SK-MEL-2): 2.3 µM (inactive) | GI50 (PC-3): 3 µM (inactive) | GI50 (SR): 4.89 µM (inactive) | GI50 (CAKI-1): 4.07 µM (inactive) | GI50 (ACHN): 3.01 µM (inactive) | GI50 (UACC-257): 4.05 µM (inactive) | GI50 (RXF 393): 2.34 µM (inactive) | GI50 (SNB-19): 2.66 µM (inactive) | GI50 (T47D): 1.5 µM (inactive) | GI50 (LOX IMVI): 3.35 µM (inactive) | GI50 (HCT-15): 4.09 µM | GI50 (K562): 8.39 µM (inactive) | GI50 (A549): 2.96 µM (inactive) | GI50 (SF-295): 3.09 µM (inactive) | GI50 (A498): 3.72 µM (inactive) | GI50 (RPMI-8226): 4.24 µM (inactive) | GI50 (U-251): 3.4 µM (inactive) | GI50 (MDA-MB-231): 3.2 µM (inactive)

CCOC(=O)CC[C@H](N)C(=O)N[C@@H](Cc1ccc(N(CCCl)CCCl)cc1)C(=O)OCC
GI50 (M14): 0.261 µM (active) | GI50 (SK-MEL-5): 1.5 µM (inactive) | GI50 (SK-MEL-2): 2.69 µM (inactive) | GI50 (PC-3): 1.29 µM (inactive) | GI50 (SR): < 0.0201 µM (active) | GI50 (CAKI-1): 0.358 µM (active) | GI50 (ACHN): < 0.0348 µM (active) | GI50 (UACC-257): 1.5 µM (inactive) | GI50 (RXF 393): 0.658 µM (active) | GI50 (SNB-19): 4.69 µM (inactive) | GI50 (T47D): 0.718 µM (active) | GI50 (LOX IMVI): 0.184 µM (active) | GI50 (HCT-15): 0.726 µM | GI50 (K562): 0.895 µM (active) | GI50 (A549): 2.73 µM (inactive) | GI50 (SF-295): 3.6 µM (inactive) | GI50 (A498): 17.7 µM (inactive) | GI50 (RPMI-8226): 2.54 µM (inactive) | GI50 (U-251): 1.94 µM (inactive) | GI50 (MDA-MB-231): 1.94 µM (inactive)

CC1(C)C2CC1C(/C=N\OCC(=O)O)=CC2=O (stereo not given)
GI50 (M14): > 100 µM (inactive) | GI50 (SK-MEL-5): > 100 µM (inactive) | GI50 (SK-MEL-2): > 100 µM (inactive) | GI50 (PC-3): > 100 µM (inactive) | GI50 (SR): > 100 µM (inactive) | GI50 (CAKI-1): > 100 µM (inactive) | GI50 (ACHN): > 100 µM (inactive) | GI50 (UACC-257): > 100 µM (inactive) | GI50 (RXF 393): > 100 µM (inactive) | GI50 (SNB-19): > 100 µM (inactive) | GI50 (T47D): > 100 µM (inactive) | GI50 (LOX IMVI): > 100 µM (inactive) | GI50 (HCT-15): > 100 µM | GI50 (K562): > 100 µM (inactive) | GI50 (A549): > 100 µM (inactive) | GI50 (SF-295): > 100 µM (inactive) | GI50 (A498): > 100 µM (inactive) | GI50 (RPMI-8226): > 100 µM (inactive) | GI50 (U-251): > 100 µM (inactive) | GI50 (MDA-MB-231): > 100 µM (inactive)

Cc1cc(C)nc(NC(=O)c2ccc(Br)s2)c1
GI50 (M14): 21.3 µM (inactive) | GI50 (SK-MEL-5): 5.13 µM (inactive) | GI50 (SK-MEL-2): > 100 µM (inactive) | GI50 (PC-3): > 100 µM (inactive) | GI50 (SR): > 100 µM (inactive) | GI50 (CAKI-1): > 100 µM (inactive) | GI50 (ACHN): > 100 µM (inactive) | GI50 (UACC-257): > 100 µM (inactive) | GI50 (RXF 393): > 100 µM (inactive) | GI50 (SNB-19): > 100 µM (inactive) | GI50 (T47D): 31.9 µM (inactive) | GI50 (LOX IMVI): 35.3 µM (inactive) | GI50 (HCT-15): 94.8 µM | GI50 (K562): > 100 µM (inactive) | GI50 (A549): 48.4 µM (inactive) | GI50 (SF-295): 20.5 µM (inactive) | GI50 (A498): 30.5 µM (inactive) | GI50 (RPMI-8226): 3.3 µM (inactive) | GI50 (U-251): > 100 µM (inactive) | GI50 (MDA-MB-231): 21.7 µM (inactive)

COc1cc([C@@H]2c3cc4c(cc3[C@@H](OC3OC5CO[C@@H](c6cccs6)OC5C(O)C3O)[C@H]3COC(=O)[C@H]23)OCO4)cc(OC)c1O (stereo not given in full)
GI50 (M14): 0.594 µM (active) | GI50 (SK-MEL-5): 0.548 µM (active) | GI50 (SK-MEL-2): 1.09 µM (active) | GI50 (PC-3): 1.11 µM (active) | GI50 (SR): 0.0117 µM (active) | GI50 (CAKI-1): 0.0733 µM (active) | GI50 (ACHN): 0.173 µM (active) | GI50 (UACC-257): 1.86 µM (inactive) | GI50 (RXF 393): 0.478 µM (active) | GI50 (SNB-19): 0.299 µM (active) | GI50 (T47D): 0.162 µM (active) | GI50 (LOX IMVI): 0.206 µM (active) | GI50 (HCT-15): 1.55 µM | GI50 (K562): 0.724 µM (active) | GI50 (A549): 0.144 µM (active) | GI50 (SF-295): 0.144 µM (active) | GI50 (A498): 0.394 µM (active) | GI50 (RPMI-8226): 0.164 µM (active) | GI50 (U-251): 0.147 µM (active) | GI50 (MDA-MB-231): 1.12 µM (active)

CC(=O)c1c2n(n(-c3ccccc3)c1=O)C(=O)c1nccnc1-2
GI50 (M14): > 100 µM (inactive) | GI50 (SK-MEL-5): > 100 µM (inactive) | GI50 (SK-MEL-2): > 100 µM (inactive) | GI50 (PC-3): > 100 µM (inactive) | GI50 (SR): > 100 µM (inactive) | GI50 (CAKI-1): > 100 µM (inactive) | GI50 (ACHN): > 100 µM (inactive) | GI50 (UACC-257): > 100 µM (inactive) | GI50 (RXF 393): > 100 µM (inactive) | GI50 (SNB-19): > 100 µM (inactive) | GI50 (T47D): > 100 µM (inactive) | GI50 (LOX IMVI): > 100 µM (inactive) | GI50 (HCT-15): > 100 µM | GI50 (K562): > 100 µM (inactive) | GI50 (A549): > 100 µM (inactive) | GI50 (SF-295): > 100 µM (inactive) | GI50 (A498): > 100 µM (inactive) | GI50 (RPMI-8226): > 100 µM (inactive) | GI50 (U-251): > 100 µM (inactive) | GI50 (MDA-MB-231): > 100 µM (inactive)

CC1CSC(=S)N1C(=O)N1C(=S)SCC1C (stereo not given)
GI50 (M14): 21.9 µM (inactive) | GI50 (SK-MEL-5): 17 µM (inactive) | GI50 (SK-MEL-2): 21.3 µM (inactive) | GI50 (PC-3): 24.7 µM (inactive) | GI50 (SR): 12.5 µM (inactive) | GI50 (CAKI-1): 20.4 µM (inactive) | GI50 (ACHN): 18.5 µM (inactive) | GI50 (UACC-257): 19.3 µM (inactive) | GI50 (RXF 393): 12.9 µM (inactive) | GI50 (SNB-19): 63.8 µM (inactive) | GI50 (T47D): 28.6 µM (inactive) | GI50 (LOX IMVI): 20.4 µM (inactive) | GI50 (HCT-15): 16.5 µM | GI50 (K562): 20.1 µM (inactive) | GI50 (A549): 35.6 µM (inactive) | GI50 (SF-295): 45.8 µM (inactive) | GI50 (A498): 27.5 µM (inactive) | GI50 (RPMI-8226): 18.7 µM (inactive) | GI50 (U-251): 18.2 µM (inactive) | GI50 (MDA-MB-231): 22.2 µM (inactive)

O=c1c2cc([N+](=O)[O-])ccc2n(Cc2ccccc2)n1Cc1ccccc1
GI50 (M14): 13.1 µM (inactive) | GI50 (SK-MEL-5): 4.75 µM (inactive) | GI50 (SK-MEL-2): 12.6 µM (inactive) | GI50 (PC-3): 12 µM (inactive) | GI50 (SR): 14 µM (inactive) | GI50 (CAKI-1): 22.2 µM (inactive) | GI50 (ACHN): 16.2 µM (inactive) | GI50 (UACC-257): 10.8 µM (inactive) | GI50 (RXF 393): 24.9 µM (inactive) | GI50 (SNB-19): 29.6 µM (inactive) | GI50 (T47D): 10.9 µM (inactive) | GI50 (LOX IMVI): 9.2 µM (inactive) | GI50 (HCT-15): 20.1 µM | GI50 (K562): 6.38 µM (inactive) | GI50 (A549): 18.6 µM (inactive) | GI50 (SF-295): 15.1 µM (inactive) | GI50 (A498): 15.9 µM (inactive) | GI50 (RPMI-8226): 7.41 µM (inactive) | GI50 (U-251): 15.1 µM (inactive) | GI50 (MDA-MB-231): 12.6 µM (inactive)

Cc1nc2sc(C(=O)c3ccc(Cl)cc3)c(N)c2c(-c2ccccc2Cl)c1C(=O)Nc1ccccc1
GI50 (M14): 9.71 µM (inactive) | GI50 (SK-MEL-5): 17.4 µM (inactive) | GI50 (SK-MEL-2): 3.08 µM (inactive) | GI50 (PC-3): 19 µM (inactive) | GI50 (SR): 18.1 µM (inactive) | GI50 (CAKI-1): 12 µM (inactive) | GI50 (ACHN): 21.2 µM (inactive) | GI50 (UACC-257): 18.6 µM (inactive) | GI50 (RXF 393): 14.7 µM (inactive) | GI50 (SNB-19): 22.2 µM (inactive) | GI50 (T47D): 2.93 µM (inactive) | GI50 (LOX IMVI): 12.2 µM (inactive) | GI50 (HCT-15): 15.6 µM | GI50 (K562): 12.3 µM (inactive) | GI50 (A549): 9.06 µM (inactive) | GI50 (SF-295): 20.7 µM (inactive) | GI50 (A498): 21.3 µM (inactive) | GI50 (RPMI-8226): 23.3 µM (inactive) | GI50 (U-251): 7.08 µM (inactive) | GI50 (MDA-MB-231): 14.2 µM (inactive)

C=C(c1ccccc1)[C@@]1(O)CC[C@@H]1N(CC#N)Cc1ccccc1
GI50 (M14): 17.3 µM (inactive) | GI50 (SK-MEL-5): 15.9 µM (inactive) | GI50 (SK-MEL-2): 20.9 µM (inactive) | GI50 (PC-3): 22.9 µM (inactive) | GI50 (SR): 37.2 µM (inactive) | GI50 (CAKI-1): 18.9 µM (inactive) | GI50 (ACHN): 20.8 µM (inactive) | GI50 (UACC-257): 17.8 µM (inactive) | GI50 (RXF 393): 17.7 µM (inactive) | GI50 (SNB-19): 36.6 µM (inactive) | GI50 (T47D): 16.3 µM (inactive) | GI50 (LOX IMVI): 19.1 µM (inactive) | GI50 (HCT-15): 18.7 µM | GI50 (K562): 42.1 µM (inactive) | GI50 (A549): 32.9 µM (inactive) | GI50 (SF-295): 58.1 µM (inactive) | GI50 (A498): 13.6 µM (inactive) | GI50 (RPMI-8226): 20 µM (inactive) | GI50 (U-251): 53.3 µM (inactive) | GI50 (MDA-MB-231): 14 µM (inactive)
